Literature values in US20190381039A1, “USE OF sGC STIMULATORS FOR THE TREATMENT OF ESOPHAGEAL MOTILITY DISORDERS” (Cyclerion Therapeutics, Inc., priority 2016, published 2019).

Columns and labels:
[1] = test system: patients with esophageal motility abnormalities
[2] = test system: patients with idiopathic achalasia
[3] = report from 2000, patients with esophageal dysmotility

CN(C)CCCN1c2ccccc2CCc2ccccc21 [imipramine]
relief of chest pain [1]: effective in relieving chest pain

CCCc1nn(C)c2c(=O)[nH]c(-c3cc(S(=O)(=O)N4CCN(C)CC4)ccc3OCC)nc12 [sildenafil]
utility in achalasia patients (off label) ([2]; Bortolotti et al., Gastroenterology 118(2): 253-7, 2000): some limited utility | side effects reported by patients ([2]; report from 2000): dizziness and headaches | LES pressure [2, 3]: able to reduce LES pressure | clinical symptoms [2, 3]: clinical symptoms were not improved

O=c1n(CCCN2CCN(c3cccc(Cl)c3)CC2)nc2ccccn12 [trazodone]
relief of chest pain [1]: effective in relieving chest pain
